Entries after “also recorded” stand apart in the source; their conditions may differ.
What was measured:
[1] = tested on: resected human cortical tissue from epileptic patients; test: Human epileptic cerebral cortex slice electrophysiology; type: cell-based; settings: 30 μM
Procedure: The tissue was prepared and treated as previously described (Zwart et al., J. Pharmacal. Exp. Ther., 2014, 351:124-133). Slices were maintained at 37° C. and were perfused at 1.0 ml/min first with normal ACSF (NACSF) solution for one hour to see if the tissue was spontaneously active. […] Tissue was then recorded in EACSF with a concentration of 10 μM picrotoxin for 1 hr. Subsequently, tissue was recorded in EACSF with a concentration of 10 μM of picrotoxin with 30 μM KRM-II-81 and recorded for 1 hour. Following the KRM-II-81 addition, tissue was recorded in a washout solution of EACSF and 10 μM Picrotoxin for 1 hr. The concentration of KRM-II-81 was based upon data collected in human cortical slices with perampanel and upon the need to be conservative in concentration estimates to maximize the opportunity to see an effect given limited human tissue opportunities. A second experiment was conducted using […] (50 μM) as an activator instead of picrotoxin.
Recordings were performed on microelectrode arrays of 60 electrodes as previously described (Zwart et al., J Pharmacol. Exp. Ther., 2014, 351:124-133). LFPs with sharp negative peaks below a threshold set at 3 standard deviations of the signal were marked, and the time of the maximum excursion was recorded as the time of that LFP. Time points were binned at 4 ms. […]

[2] = tested on: immobility in tail-suspension test; test: Tail-suspension assay; type: in vivo; settings: C57Bl/6 mice
Procedure: Male, C57Bl/6 mice (Envigo, Indianapolis, Ind.) were employed in these experiments. Med Associates Inc. (Fairfax, Vt., USA), apparatus SOF-821 was utilized. The TST was an automated version of published methods in which the tail was secured to a lever on the ceiling of the chamber. The duration of immobility was recorded by a force transducer for a period of 10 min.
Imipramine was dissolved in water.

[3] = tested on: human (α2), or rat (α1, α3, α5, γ2L, β3) GABAA receptor subunits; test: Whole-cell patch-clamp GABA current responses in transfected HEK-293T cells; type: cell-based; settings: GABA EC3-5, drug concentration 100 nM
Procedure: Human […] (HEK-293T) were transiently transfected with full-length cDNAs encoding human (α2), or rat (α1, α3, α5, γ2L, β3) GABAA receptor subunits using calcium phosphate precipitation. Positively transfected cells were isolated by utilizing co-transfection of a plasmid encoding a surface antibody (pHook™-1, Invitrogen). 20-52 hours following transfection, cells were mixed with magnetic beads coated with antigen specific for the pHook antibody, isolated with a magnetic stand, and then plated onto coverslips and used for patch-clamp recordings 18-28 hours later.
Current responses to GABA were recorded in the whole-cell configuration, with cells voltage-clamped at −50 mV. The bath solution contained (in mM): 142 NaCl, 8.1 KCl, 6 MgCl2, 1 CaCl2), and 10 HEPES (4-(2-hydroxyethyl)-1-piperazineethanesulfonic acid) with pH=7.4 and osmolarity adjusted to 295-305 mOsm. The electrode (internal) solution consisted of (in mM); 153 KCl, 1 MgCl2, 5 K-EGTA (ethylene glycol-bis (β-aminoethyl ether N,N,N′N′-tetraacetate)), and 10 HEPES with pH=7.4 and osmolarity adjusted to 295-305 mOsm. […] Currents were recorded with an Axon 200B (Foster City, Calif.) patch clamp amplifier. […] Data were analyzed by two-way ANOVA followed by post-hoc Tukey's multiple comparison test. […]

[4] = tested on: punished licking (anxiety); test: Vogel conflict test; type: in vivo; settings: rats
Procedure: Experiments are conducted as described in the protocol of Alt et al. (Neuropharmacology 2007, 52, 1482-1487). Experimentally-naive adult male Sprague-Dawley rats (Harlan Industries, Indianapolis, Ind.), weighing between 200 and 300 g, are used as subjects. The rats are housed in Plexiglas cages (4 per cage) and given free access to Lab Diet #5001 for rodents (PMI Nutrition International Inc., St. Louis, Mo.). Water is withheld for 20-24 hours prior to the first training session. A 12-hr light/dark cycle is maintained, and all experimental sessions are conducted during the light phase of the cycle at about the same time each day.
The experiments are conducted using operant behavior test chambers ENV-007 (Med Associates Inc., Georgia, Vt., USA), 30.5×24.1×29.2 cm. […] All events are controlled and licking data is recorded by a Compaq computer running MED-PC Version IV (Med Associates Inc., Georgia, Vt., USA).
Rats are put into the chamber on day 1 and 2 with white noise and the houselight illuminated, and allowed to drink for a total of six minutes after the first lick is made. The six minutes is broken into two components, the first three minutes is recorded as the unpunished component and the second three minutes are recorded as the punished component. […]
The mean number of licks for both the unpunished and punished components are analyzed. […]

C#Cc1ccc2c(c1)C(c1ccccn1)=NCc1c(-c3cnco3)ncn1-2 [KRM-II-81, 5-(8-ethynyl-6-(pyridin-2-yl)-4H-benzo[f]imidazo[1,5-a][1,4]diazepin-3-yl)oxazole]
firing rate ([1]; firing stimulated with AP-4 (50 μM), baseline 0.08±0.01): 0.01±0.005 Hz
average firing rate ([1]; in presence of 10 μM picrotoxin, baseline 0.05±0.01 Hz): 0.01±0.005 Hz
immobility in tail-suspension test ([2]; i.p., 100 mg/kg significantly greater than vehicle, 100 mg/kg): slight increase in immobility at the higher doses tested; also recorded: not active
sedation-like effects ([2]; higher doses tested): moderate sedation-like effects
selectivity for α2 and α3 over α1 [3]: selective for α2 and α 3 over α1

C#Cc1ccc2c(c1)C(c1ccccc1)=NCc1c(-c3cnco3)ncn1-2 [KRM-II-82, 5-(8-ethynyl-6-phenyl-4H-benzo[f]imidazo[1,5-a][1,4]diazepin-3-yl)oxazole]
anxiolytic-like efficacy in Vogel conflict test [4]: did not produce anxiolytic-like efficacy
